Measured values: the NIST ThermoML archive (doi:10.1021/je050386z)
± gives the expanded uncertainty stated by the source.

Settings: 101.33 kPa, Liquid
[1] = 283.15 K, Vibrating tube method
[2] = 298.15 K, Vibrating tube method
[3] = 323.15 K, Vibrating tube method
[4] = 348.15 K, Vibrating tube method

Q: With `CCCn1cc[n+](C)c1C.O=S(=O)([C-](S(=O)(=O)C(F)(F)F)S(=O)(=O)C(F)(F)F)C(F)(F)F` as the molecule, how does the mass density [1] read?
A: Its mass density is 1612 ± 3 kg/m3.

Q: And the mass density [2]?
A: The mass density was 1597 ± 3 kg/m3.

Q: And the mass density [3]?
A: Its mass density is 1582 ± 3 kg/m3.

Q: And the mass density [4]?
A: The mass density was 1567 ± 3 kg/m3.

Q: For `CCCCn1cc[n+](C)c1.O=S(=O)([O-])C(F)(F)C(F)F`, which mass density (301.45 K, Pycnometric method) is on record?
A: Its mass density is 1324 ± 4 kg/m3.

Q: With `CCC[n+]1ccn(C)c1C.O=S(=O)([N-]S(=O)(=O)C(F)(F)F)C(F)(F)F` as the molecule, how does the mass density (299.15 K, Pycnometric method) read?
A: The mass density was 1481 ± 3 kg/m3.

Q: With `CCC[n+]1cccc(C)c1.O=S(=O)([N-]S(=O)(=O)C(F)(F)F)C(F)(F)F` as the molecule, how does the mass density [1] read?
A: The mass density was 1460 ± 3 kg/m3.

Q: And the mass density [2]?
A: Its mass density is 1444 ± 3 kg/m3.

Q: And the mass density [3]?
A: The mass density was 1420 ± 3 kg/m3.

Q: What about the mass density [4] of the same molecule?
A: The mass density was 1397 ± 3 kg/m3.

Q: What does the source list for `CCCC[n+]1cccc(C)c1.O=S(=O)([N-]S(=O)(=O)C(F)(F)F)C(F)(F)F`?
A: mass density [1]: 1428 ± 3 kg/m3; mass density [2]: 1412 ± 3 kg/m3; mass density [3]: 1389 ± 3 kg/m3; mass density [4]: 1367 ± 3 kg/m3

Q: Which mass density (301.35 K, Pycnometric method) does the source give for `CCCCCCCCCCCCn1cc[n+](C)c1.O=S(=O)([O-])C(F)(F)C(F)F` here?
A: The mass density was 1136 ± 4 kg/m3.

Q: With `CCCC[n+]1ccn(C)c1.O=S(=O)([O-])C(F)(F)C(F)C(F)(F)F` (centres undefined) as the molecule, how does the mass density [1] read?
A: The mass density was 1422 ± 4 kg/m3.

Q: What about the mass density [2] of the same molecule?
A: Its mass density is 1409 ± 4 kg/m3.

Q: And the mass density [3]?
A: The mass density was 1385 ± 4 kg/m3.

Q: What about the mass density [4] of the same molecule?
A: The mass density was 1364 ± 4 kg/m3.

Q: With `CCCCCCCn1cc[n+](C)c1.O=S(=O)([O-])C(F)(F)C(F)F` as the molecule, how does the mass density (301.15 K, Pycnometric method) read?
A: Its mass density is 1274 ± 4 kg/m3.

Q: For `CCn1cc[n+](C)c1.O=S(=O)([N-]S(=O)(=O)C(F)(F)F)C(F)(F)F`, which mass density [1] is on record?
A: Its mass density is 1534 ± 5 kg/m3.

Q: And the mass density [2]?
A: Its mass density is 1517 ± 5 kg/m3.

Q: And the mass density [3]?
A: Its mass density is 1492 ± 4 kg/m3.

Q: What about the mass density [4] of the same molecule?
A: The mass density was 1467 ± 4 kg/m3.

Q: With `CCCCn1cc[n+](C)c1.O=S(=O)([O-])C(F)(F)C(F)(F)OC(F)C(F)(F)F` (centres undefined) as the molecule, how does the mass density [1] read?
A: Its mass density is 1464 ± 4 kg/m3.

Q: What about the mass density [2] of the same molecule?
A: Its mass density is 1449 ± 4 kg/m3.

Q: What about the mass density [3] of the same molecule?
A: Its mass density is 1425 ± 4 kg/m3.

Q: What about the mass density [4] of the same molecule?
A: The mass density was 1401 ± 4 kg/m3.

Q: With `CC(=O)[O-].CCCCn1cc[n+](C)c1` [1-butyl-3-methylimidazolium acetate] as the molecule, how does the mass density (298.15 K, Pycnometric method) read?
A: Its mass density is 1053 ± 3 kg/m3.

Q: With `CCn1cc[n+](C)c1.O=S(=O)([O-])C(F)(F)C(F)F` as the molecule, how does the mass density (301.45 K, Pycnometric method) read?
A: The mass density was 1502 ± 5 kg/m3.

Q: Which mass density [1] does the source give for `CCCCn1cc[n+](C)c1.O=S(=O)([O-])C(F)(F)C(F)OC(F)(F)C(F)(F)F` (centres undefined) here?
A: The mass density was 1439 ± 4 kg/m3.

Q: And the mass density [2]?
A: Its mass density is 1423 ± 4 kg/m3.

Q: What about the mass density [3] of the same molecule?
A: The mass density was 1397 ± 4 kg/m3.

Q: And the mass density [4]?
A: Its mass density is 1372 ± 4 kg/m3.

Q: With `CCCCn1cc[n+](C)c1.N#C[S-]` [1-butyl-3-methylimidazolium thiocyanate] as the molecule, how does the mass density (298.65 K, Pycnometric method) read?
A: The mass density was 1067 ± 3 kg/m3.

Q: Which mass density [1] does the source give for `CCn1cc[n+](C)c1.O=S(=O)([N-]S(=O)(=O)C(F)(F)C(F)(F)F)C(F)(F)C(F)(F)F` here?
A: Its mass density is 1608 ± 3 kg/m3.

Q: What about the mass density [2] of the same molecule?
A: The mass density was 1590 ± 3 kg/m3.

Q: What about the mass density [3] of the same molecule?
A: Its mass density is 1562 ± 3 kg/m3.

Q: And the mass density [4]?
A: Its mass density is 1534 ± 3 kg/m3.

Q: With `CCCCn1cc[n+](C)c1.O=S(=O)([O-])C(F)(F)C(F)OC(F)(F)F` (centres undefined) as the molecule, how does the mass density [1] read?
A: Its mass density is 1409 ± 4 kg/m3.

Q: What about the mass density [2] of the same molecule?
A: Its mass density is 1393 ± 4 kg/m3.

Q: What about the mass density [3] of the same molecule?
A: Its mass density is 1369 ± 4 kg/m3.

Q: And the mass density [4]?
A: Its mass density is 1345 ± 4 kg/m3.

Q: With `CCCCn1cc[n+](C)c1.COS(=O)(=O)[O-]` [1-butyl-3-methylimidazolium methyl sulfate] as the molecule, how does the mass density (298.15 K, Pycnometric method) read?
A: The mass density was 1214 ± 3 kg/m3.
